Assay results taken from a compilation of properties of binary mixtures (doi:10.1021/je050387r).

Assay: xn = mol fraction of the nth substance listed
Settings: 101 kPa

O + CCCC[n+]1ccn(C)c1.F[B-](F)(F)F
x1 = 1
Settings | viscosity [mPa·s]
303.15 K | 0.8
308.15 K | 0.72
313.15 K | 0.65
318.15 K | 0.6
323.15 K | 0.55
343.15 K | 0.4
353.15 K | 0.35

CCCC[n+]1ccn(C)c1.F[B-](F)(F)F + O
viscosity [mPa·s]
Settings | x2 = 0 | x2 = 0.1002 | x2 = 0.209 | x2 = 0.2984 | x2 = 0.4001 | x2 = 0.5014 | x2 = 0.6004 | x2 = 0.7 | x2 = 0.8 | x2 = 0.8999
303.15 K | – | 47.6 | 34.9 | 23.3 | 16.6 | 12 | 10 | 6.7 | 4.36 | 2.53
308.15 K | 58.2 | – | – | 19.4 | 13.6 | 10.5 | 8.7 | 5.85 | 3.8 | 2.21
313.15 K | – | 30.7 | 23.5 | 16.2 | 11.4 | – | – | 5.35 | 3.36 | 1.95
318.15 K | 37.8 | 25.7 | 19.6 | 14.1 | 9.7 | 7.8 | – | 4.53 | 2.99 | 1.73
323.15 K | 31.1 | 21.5 | – | 11.7 | – | 6.8 | 5.69 | 4.05 | 2.68 | 1.54
333.15 K | 21.5 | 15.4 | 12 | 8.6 | 6.2 | 5.28 | 4.75 | 3.29 | 2.19 | 1.28
343.15 K | 15.6 | 11.5 | 9 | – | 4.68 | 4.24 | – | – | 1.82 | –
353.15 K | 11.5 | – | 6.8 | 4.96 | 3.56 | 3.44 | – | 2.31 | 1.54 | 0.91
